Experimental data reported in the supplement of paper PMC10307832.

How the values were obtained:
Assay in all cases: relative viability (nuclei count vs DMSO), 5 days (fraction); higher = more cells survive
[1] = compound: CC1(COc2ccc3c(c2)ncn3-c2ccc3cccc(N4CCC(N)CC4)c3n2)COC1 [Crenolanib] + Nc1nc2[nH]cc(CCc3ccc(C(=O)N[C@@H](CCC(=O)O)C(=O)O)cc3)c2c(=O)[nH]1 [Pemetrexed] (partner 0.2 µM)
Method in brief: (§1)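 Lung cancer cell lines, seeded in 1536-well plates, were treated the following day by pin tool with a single drug or with five library-drug doses (not always all listed) in √10 steps on top of a fixed anchor-drug dose. Cells were fixed and nuclei stained in one step after 5 days, and nuclei were counted. Relative viability is the nuclei count for treated wells divided by that for vehicle wells, reported as medians of duplicate plates.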

[2] = compound: O=C1NC(=O)[C@@H](c2cn3c4c(cccc24)CCC3)[C@@H]1c1c[nH]c2ccccc12 [Tivantinib] + O=C(c1cc(Cc2n[nH]c(=O)c3ccccc23)ccc1F)N1CCN(C(=O)C2CC2)CC1 [Olaparib] (partner 8 µM)
Method in brief: as §1

[3] = compound: O=C1NC(=O)[C@@H](c2cn3c4c(cccc24)CCC3)[C@@H]1c1c[nH]c2ccccc12 [Tivantinib] + COc1cccc2cc(-c3nc([C@H]4CC[C@H](C(=O)O)CC4)n4ncnc(N)c34)[nH]c12 [OSI-027] (partner 0.5 µM)
Method in brief: as §1

[4] = compound: O=C1NC(=O)[C@@H](c2cn3c4c(cccc24)CCC3)[C@@H]1c1c[nH]c2ccccc12 [Tivantinib] + Nc1ncn([C@H]2C[C@H](O)[C@@H](CO)O2)c(=O)n1 [Decitabine] (partner 2 µM)
Method in brief: as §1

| Cell Line | relative viability ([1]; first compound 0.01 µM) | relative viability ([1]; first compound 0.03162 µM) | relative viability ([1]; first compound 0.1 µM) | relative viability ([1]; first compound 0.3162 µM) | relative viability ([1]; first compound 1 µM) | relative viability ([2]; first compound 0.01 µM) | relative viability ([2]; first compound 0.03162 µM) | relative viability ([2]; first compound 0.1 µM) | relative viability ([2]; first compound 0.3162 µM) | relative viability ([3]; first compound 0.01 µM) | relative viability ([3]; first compound 0.03162 µM) | relative viability ([3]; first compound 0.1 µM) | relative viability ([3]; first compound 0.3162 µM) | relative viability ([4]; first compound 0.01 µM) | relative viability ([4]; first compound 0.03162 µM) | relative viability ([4]; first compound 0.1 µM) | relative viability ([4]; first compound 0.3162 µM) |
| --- | --- | --- | --- | --- | --- | --- | --- | --- | --- | --- | --- | --- | --- | --- | --- | --- | --- |
| RERF-LC-KJ | 0.474 | 0.516 | 0.457 | 0.479 | 0.447 | 0.894 | 0.892 | 0.917 | 0.799 | 0.592 | 0.646 | 0.512 | 0.389 | 0.802 | 0.632 | 0.63 | 0.622 |
| BEN | 0.784 | 0.637 | 0.677 | 0.752 | 0.774 | 1.05 | 1.01 | 0.961 | 0.857 | 0.323 | 0.269 | 0.278 | 0.339 | 0.755 | 0.69 | 0.631 | 0.796 |
| LCLC-103H | 0.453 | 0.45 | 0.476 | 0.503 | 0.48 | 0.713 | 0.802 | 0.722 | 0.778 | 0.471 | 0.425 | 0.41 | 0.414 | 0.658 | 0.762 | 0.731 | 0.708 |
| SW 1573 | 0.784 | 0.801 | 0.719 | 0.942 | 0.832 | 0.532 | 0.481 | 0.544 | 0.488 | 0.636 | 0.612 | 0.562 | 0.556 | 0.688 | 0.462 | 0.446 | 0.494 |
| ChaGo-K-1 | 0.26 | 0.256 | 0.255 | 0.253 | 0.27 | 0.401 | 0.41 | 0.409 | 0.398 | 0.662 | 0.482 | 0.607 | 0.549 | 0.541 | 0.52 | 0.562 | 0.522 |
| COR-L 105 | 1.25 | 1.09 | 1.09 | 1.14 | 1.1 | 0.739 | 0.665 | 0.729 | 0.585 | 0.838 | 0.378 | 0.581 | 0.363 | 0.641 | 0.662 | 0.589 | 0.596 |
| NCI-H1993 | 0.606 | 0.591 | 0.549 | 0.559 | 0.544 | 1.22 | 1.04 | 1.05 | 0.589 | 0.538 | 0.57 | 0.563 | 0.61 | 0.59 | 0.503 | 0.506 | 0.539 |
| NCI-H2009 | 1 | 1.06 | 1.07 | 0.966 | 0.847 | 0.714 | 0.674 | 0.746 | 0.643 | 0.677 | 0.529 | 0.61 | 0.713 | 0.361 | 0.365 | 0.328 | 0.391 |
| SK-LU-1 | 0.943 | 1.03 | 0.892 | 1.11 | 0.966 | 0.595 | 0.464 | 0.433 | 0.512 | 0.364 | 0.342 | 0.381 | 0.363 | 0.711 | 0.679 | 0.593 | 0.555 |
| NCI-H2347 | 0.4 | 0.425 | 0.397 | 0.447 | 0.436 | 0.556 | 0.593 | 0.583 | 0.552 | 0.48 | 0.386 | 0.418 | 0.475 | 0.699 | 0.592 | 0.623 | 0.629 |
| HCC-44 | 0.639 | 0.662 | 0.707 | 0.632 | 0.642 | 0.961 | 0.963 | 1.01 | 0.941 | 0.488 | 0.534 | 0.441 | 0.669 | 0.988 | 0.987 | 0.971 | 1.09 |
| EMC-BAC-2 | 0.437 |  | 0.456 | 0.449 | 0.436 | 0.45 | 0.477 | 0.485 | 0.582 | 0.366 | 0.3 | 0.347 | 0.357 | 1.03 | 0.981 | 0.941 | 0.965 |
| NCI-H3122 | 0.205 | 0.212 | 0.203 | 0.203 | 0.18 | 0.643 | 0.608 | 0.584 | 0.665 | 0.985 | 0.914 | 0.93 | 0.207 | 0.434 | 0.484 | 0.398 | 0.434 |
| NCI-H358 | 0.176 | 0.169 | 0.176 | 0.178 | 0.188 | 0.633 | 0.63 | 0.505 | 0.379 | 0.839 | 0.94 | 0.634 | 0.195 | 0.212 | 0.227 | 0.189 | 0.145 |
| NCI-H1944 | 0.735 | 0.646 | 0.562 | 0.837 | 0.542 | 0.368 | 0.424 | 0.39 | 0.374 | 0.372 | 0.349 | 0.393 | 0.328 | 0.43 | 0.451 | 0.44 | 0.401 |
| NCI-H2342 | 0.749 | 0.72 | 0.691 | 0.771 | 0.754 | 0.513 | 0.423 | 0.392 | 0.282 | 0.63 | 0.597 | 0.585 | 0.532 | 0.845 | 0.789 | 0.699 | 0.624 |
| H3255 | 0.597 | 0.563 | 0.544 | 0.553 | 0.589 | 0.599 | 0.588 | 0.57 |  | 0.711 | 0.551 | 0.571 |  |  | 0.53 | 0.591 | 0.27 |
| NCI-H1975 | 0.306 | 0.316 | 0.289 | 0.284 | 0.312 | 0.799 | 0.77 | 0.72 | 0.734 | 0.751 | 0.752 | 0.611 | 0.691 | 0.446 | 0.395 | 0.358 | 0.34 |
| NCI-H647 | 0.202 | 0.19 | 0.201 | 0.209 | 0.217 | 0.425 | 0.638 | 0.401 | 0.638 | 0.792 | 0.618 | 0.574 | 0.83 | 0.437 | 0.305 | 0.381 | 0.357 |
